Values joined by “and” are separate entries in the source; they are usually repeats but may differ in a detail not shown here. Identical values can stand only once. Toxic doses and inconclusive results are not listed. Cut-off read from the data, not from the text of the source: active = T/C of 150% or more; inactive = T/C below 125%.
Tested on: L1210 leukemia ip in BDF1 mice, survival T/C
Assay: NCI In Vivo Anticancer Drug Screen. Data for tumor model L1210 Leukemia (intraperitoneal) in B6D2F1 (BDF1) mice
Conditions: endpoint: mean survival time, higher = longer survival
In short: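 Read-out is survival time, reported as the treated-group measurement over the vehicle-control measurement.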

[1] = dose: 100.0 mg/kg/injection, schedule: Q01DX001 (ip), vehicle: carboxymethylcellulose (CMC)
[2] = dose: 200.0 mg/kg/injection, schedule: Q01DX001 (ip), vehicle: carboxymethylcellulose (CMC)
[3] = dose: 400.0 mg/kg/injection, schedule: Q01DX001 (ip), vehicle: carboxymethylcellulose (CMC)
[4] = dose: 100.0 mg/kg/injection, schedule: Q01DX001 (ip), vehicle: saline
[5] = dose: 200.0 mg/kg/injection, schedule: Q01DX001 (ip), vehicle: saline
[6] = dose: 400.0 mg/kg/injection, schedule: Q01DX001 (ip), vehicle: saline
[7] = dose: 100.0 mg/kg/injection, schedule: Q04DX003 (ip), vehicle: Klucel (hydroxypropylcellulose) (HPC)
[8] = dose: 200.0 mg/kg/injection, schedule: Q04DX003 (ip), vehicle: Klucel (hydroxypropylcellulose) (HPC)
[9] = dose: 400.0 mg/kg/injection, schedule: Q04DX003 (ip), vehicle: Klucel (hydroxypropylcellulose) (HPC)
[10] = dose: 100.0 mg/kg/injection, schedule: Q04DX003 (ip), vehicle: saline with Tween-80
[11] = dose: 200.0 mg/kg/injection, schedule: Q04DX003 (ip), vehicle: saline with Tween-80
[12] = dose: 400.0 mg/kg/injection, schedule: Q04DX003 (ip), vehicle: saline with Tween-80
[13] = dose: 100.0 mg/kg/injection, schedule: Q04DX002 (ip), vehicle: Klucel (hydroxypropylcellulose) (HPC)
[14] = dose: 200.0 mg/kg/injection, schedule: Q04DX002 (ip), vehicle: Klucel (hydroxypropylcellulose) (HPC)
[15] = dose: 400.0 mg/kg/injection, schedule: Q04DX002 (ip), vehicle: Klucel (hydroxypropylcellulose) (HPC)
[16] = dose: 100.0 mg/kg/injection, schedule: Q01DX009 (ip), vehicle: saline with Tween-80
[17] = dose: 200.0 mg/kg/injection, schedule: Q01DX009 (ip), vehicle: saline with Tween-80
[18] = dose: 400.0 mg/kg/injection, schedule: Q01DX009 (ip), vehicle: saline with Tween-80
[19] = dose: 25.0 mg/kg/injection, schedule: Q01DX009 (ip), vehicle: Klucel (hydroxypropylcellulose) (HPC)
[20] = dose: 50.0 mg/kg/injection, schedule: Q01DX009 (ip), vehicle: Klucel (hydroxypropylcellulose) (HPC)
[21] = dose: 100.0 mg/kg/injection, schedule: Q01DX009 (ip), vehicle: saline
[22] = dose: 200.0 mg/kg/injection, schedule: Q01DX009 (ip), vehicle: saline

Measured: T/C

Cc1ccc2sc(C)cc(=O)c2c1
inactive: [1] 100 % of control | [2] 100 % of control | [3] 98 % of control

CCSC1C(OC(C)=O)C(C(CI)OC(C)=O)OC1n1cc(C)c(=O)[nH]c1=O (stereo unspecified)
inactive: dose: 100.0 mg/kg/injection, schedule: Q01DX005 (ip), vehicle: saline 93 % of control | dose: 200.0 mg/kg/injection, schedule: Q01DX005 (ip), vehicle: saline 98 % of control

CN1C(=O)c2c(ccc3c2OCO3)C2C(O)Cc3cc4c(cc3C21)OCO4 (stereo unspecified)
inactive: [4] 100 % of control | [5] 94 % of control | [6] 107 % of control

CC(=O)OC1CCC2(C)C(CCC3(C)C2CC=C2C4C(C)C(C)CCC4(C)CCC23C)C1(C)C (stereo unspecified)
inactive: [7] 91 % of control | [8] 88 % of control | [9] 90 % of control

O=C(CBr)c1ccccc1
inactive: dose: 10.0 mg/kg/injection, schedule: Q04DX003 (ip), vehicle: saline with Tween-80 93 % of control | dose: 20.0 mg/kg/injection, schedule: Q04DX003 (ip), vehicle: saline with Tween-80 97 % of control

O=c1c(O)c(-c2ccccc2)oc2ccccc12
inactive: [1] 90 % of control | [2] 97 % of control | [3] 97 % of control

CN(C)c1ccc(C=NCCN=Cc2ccc(N(C)C)cc2)cc1
inactive: [10] 98 % of control | [11] 106 % of control | [12] 95 % of control

O=C(O)C1=CCCC1
inactive: dose: 222.0 mg/kg/injection, schedule: Q01DX Z (ip), vehicle: saline 103 % of control | dose: 333.0 mg/kg/injection, schedule: Q01DX Z (ip), vehicle: saline 102 % of control | dose: 500.0 mg/kg/injection, schedule: Q01DX Z (ip), vehicle: saline 96 % of control

NOC(=O)c1ccc([N+](=O)[O-])cc1
inactive: [13] 94 % of control | [14] 94 % of control | [15] 94 % of control

c1ccc(C(CCCCC(c2ccccc2)c2ccccc2)c2ccccc2)cc1
inactive: dose: 75.0 mg/kg/injection, schedule: Q01DX001 (ip), vehicle: saline 94 % of control | dose: 150.0 mg/kg/injection, schedule: Q01DX001 (ip), vehicle: saline 92 % of control | dose: 300.0 mg/kg/injection, schedule: Q01DX001 (ip), vehicle: saline 93 % of control

Cc1ccc(C(CC(=O)O)CC(=O)O)c(O)c1
inactive: dose: 100.0 mg/kg/injection, schedule: Q01DX009 (ip), vehicle: gum acacia 96 % of control | dose: 100.0 mg/kg/injection, schedule: Q04DX003 (ip), vehicle: gum acacia 95 % of control | dose: 200.0 mg/kg/injection, schedule: Q01DX009 (ip), vehicle: gum acacia 93 % of control | dose: 200.0 mg/kg/injection, schedule: Q04DX003 (ip), vehicle: gum acacia 93 % of control | dose: 400.0 mg/kg/injection, schedule: Q01DX009 (ip), vehicle: gum acacia 88 % of control | dose: 400.0 mg/kg/injection, schedule: Q04DX003 (ip), vehicle: gum acacia 90 % of control

ClC(Cl)(Cl)C1OCOC(C(Cl)(Cl)Cl)O1 (stereo unspecified)
inactive: [10] 98 % of control | [11] 96 % of control | [12] 101 % of control

O=C(O)C(Cl)(Br)C(Cl)c1ccccc1 (stereo unspecified)
inactive: [16] 93 % of control | [17] 91 % of control | [18] 95 % of control

O=C(O)CC1(CC(=O)O)CCCCC1
inactive: [16] 90 % of control | [17] 95 % of control | [18] 92 % of control

O=c1oc2ccccc2c2c1C(c1ccc3c(c1)OCO3)C=C(c1ccc3c(c1)OCO3)O2 (stereo unspecified)
inactive: dose: 25.0 mg/kg/injection, schedule: Q01DX009 (ip), vehicle: water 101 % of control | dose: 50.0 mg/kg/injection, schedule: Q01DX009 (ip), vehicle: water 100 % of control | dose: 100.0 mg/kg/injection, schedule: Q01DX009 (ip), vehicle: water 97 % of control | dose: 200.0 mg/kg/injection, schedule: Q01DX009 (ip), vehicle: water 95 % of control | dose: 400.0 mg/kg/injection, schedule: Q01DX009 (ip), vehicle: water 102 % of control

O=c1oc(-c2ccccc2)nc2c(Cl)ccc(Cl)c12
inactive: [19] 110 % of control | [20] 105 % of control | dose: 75.0 mg/kg/injection, schedule: Q01DX009 (ip), vehicle: Klucel (hydroxypropylcellulose) (HPC) 102 % of control

Cc1ccc(N=Cc2cc(Cl)cc(Cl)c2OC(=O)c2ccccc2)cc1Cl
inactive: [13] 94 % of control | [14] 111 % of control | [15] 97 % of control

Nc1ncnc(N)c1NC(=O)c1ccc(C(=O)c2ccccc2)cc1
inactive: [7] 100 % of control | [8] 94 % of control | [9] 94 % of control

CCOC(=O)CN1C(=O)NC(CC)(CC)C1=O
inactive: [21] 96 % of control | dose: 100.0 mg/kg/injection, schedule: Q04DX003 (ip), vehicle: acetone 104 % of control | [22] 94 % of control | dose: 200.0 mg/kg/injection, schedule: Q04DX003 (ip), vehicle: acetone 107 % of control | dose: 400.0 mg/kg/injection, schedule: Q01DX009 (ip), vehicle: saline 105 % of control | dose: 400.0 mg/kg/injection, schedule: Q04DX003 (ip), vehicle: acetone 102 % of control

Cc1ccc(S(=O)(=O)N2CCC(C(=O)O)(c3ccccc3)CC2)cc1
inactive: [16] 117 % of control | [17] 101 % of control | [18] 95 % of control

C=CCNCC(O)c1ccccc1 (stereo unspecified)
inactive: [19] 90 % of control | [20] 95 % of control | dose: 100.0 mg/kg/injection, schedule: Q01DX009 (ip), vehicle: Klucel (hydroxypropylcellulose) (HPC) 95 % of control and 103 % of control | [7] 95 % of control | [8] 101 % of control | [9] 95 % of control

c1ccc(C2=NC(c3ccccc3)NC2c2ccccc2)cc1 (stereo unspecified)
inactive: dose: 25.0 mg/kg/injection, schedule: Q01DX001 (ip), vehicle: Klucel (hydroxypropylcellulose) (HPC) 95 % of control | dose: 50.0 mg/kg/injection, schedule: Q01DX001 (ip), vehicle: Klucel (hydroxypropylcellulose) (HPC) 98 % of control

O=c1ccn2ccccc2n1
inactive: dose: 50.0 mg/kg/injection, schedule: Q01DX009 (ip), vehicle: saline 101 % of control | [21] 99 % of control | dose: 100.0 mg/kg/injection, schedule: Q04DX003 (ip), vehicle: saline 103 % of control | [22] 98 % of control | dose: 200.0 mg/kg/injection, schedule: Q04DX003 (ip), vehicle: saline 109 % of control

O=C1CCC2c3ccccc3-c3cccc1c32 (stereo unspecified)
inactive: dose: 50.0 mg/kg/injection, schedule: Q01DX001 (ip), vehicle: carboxymethylcellulose (CMC) 100 % of control | [1] 91 % of control | [2] 96 % of control | [3] 102 % of control

Cc1ccc(N2CCN(CC(O)COc3ccccc3Cl)CC2)cc1 (stereo unspecified)
inactive: [4] 95 % of control | [5] 95 % of control | [6] 95 % of control

Reference: PubChem BioAssay AID248 (DTP/NCI, 2004)
